According to patent US20240124529A1, “ANTIVIRAL […]-[…]-CoV-2 PEPTIDES AND USES THEREOF” (Dana-Farber Cancer Institute, Inc., priority 2020, published 2024):
Bridge positions count the residues as written; N and C are the ends. Square brackets hold non-standard residues; d marks the D form. Peptide text beside a SMILES is read from it. S5 = C=CCCC[C@](C)(N)C(=O)O; Nle = CCCC[C@H](N)C(=O)O

Tests used:
Proteinase K = Proteinase K (Parengyodontium album, UniProt P06873); assay: in vitro; settings: pH 7.4
[1] = assay type: physicochemical; settings: 25-50 μM peptide in 50 mM potassium phosphate (pH 7.5) or water

Proteinase K, sequence (P06873 106-384): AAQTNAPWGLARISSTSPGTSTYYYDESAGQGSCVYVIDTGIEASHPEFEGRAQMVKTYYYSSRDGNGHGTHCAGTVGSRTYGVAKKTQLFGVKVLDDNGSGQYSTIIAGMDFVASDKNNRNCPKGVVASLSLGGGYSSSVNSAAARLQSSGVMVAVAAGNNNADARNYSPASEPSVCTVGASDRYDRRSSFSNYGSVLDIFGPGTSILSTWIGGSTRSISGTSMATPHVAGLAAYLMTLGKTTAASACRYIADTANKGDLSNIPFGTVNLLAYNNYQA

Compound	half-life (Proteinase K) [min]	IC50 (SARS-CoV-2) [µM]	alpha-helical structure in solution by circular dichroism [1]
CC[C@H](C)[C@H](NC(C)=O)C(=O)N[C@@H](CCC(N)=O)C(=O)N[C@@H](CCCCN)C(=O)N[C@@H](CCC(=O)O)C(=O)N[C@H](C(=O)N[C@@H](CC(=O)O)C(=O)N[C@@H](CCCNC(=N)N)C(=O)N[C@@H](CC(C)C)C(=O)N[C@@H](CC(N)=O)C(=O)N[C@@H](CCC(=O)O)C(=O)N[C@H](C(=O)N[C@@H](C)C(=O)N[C@@H](CCCCN)C(=O)N[C@@H](CC(N)=O)C(=O)N[C@@H](CC(C)C)C(=O)N[C@@H](CC(N)=O)C(=O)N[C@@H](CCC(=O)O)C(=O)N[C@@H](CO)C(=O)N[C@@H](CC(C)C)C(N)=O)C(C)C)[C@@H](C)CC [SEQ ID NO:10, reference compound]	35	–	–
CC[C@H](C)[C@H](NC(C)=O)C(=O)N[C@@H](CCC(N)=O)C(=O)N[C@@]1(C)CCCC=CCCC[C@@](C)(C(=O)N[C@@H](CC(C)C)C(=O)N[C@@H](CC(N)=O)C(=O)N[C@@H](CCC(=O)O)C(=O)N[C@H](C(=O)N[C@@H](C)C(=O)N[C@@H](CCCCN)C(=O)N[C@@]2(C)CCCC=CCCC[C@@](C)(C(=O)N[C@@H](CC(C)C)C(N)=O)NC(=O)[C@H](CCC(=O)O)NC(=O)[C@H](CC(N)=O)NC(=O)[C@H](CC(C)C)NC2=O)C(C)C)NC(=O)[C@H](CC(=O)O)NC(=O)[C@H]([C@@H](C)CC)NC(=O)[C@H](CCC(=O)O)NC1=O [SEQ ID NO:52, IQX1EIDX2LNEVAKX3LNEX4L] (Ac-IQ[S5]EID[S5]LNEVAK[S5]LNE[S5]L-NH2; staple 3-7, 14-18)	> 1000	< 6	–
CC[C@H](C)[C@H](NC(=O)[C@H](Cc1ccc(O)cc1)NC(=O)[C@H](CCC(N)=O)NC(=O)[C@H](CCC(=O)O)NC(=O)[C@H](Cc1ccc(O)cc1)NC(=O)[C@H](CCCCN)NC(=O)CNC(=O)[C@H](CC(C)C)NC(=O)[C@H](CCC(=O)O)NC(=O)[C@H](CCC(N)=O)NC(=O)[C@H](CC(C)C)NC(=O)[C@H](CC(=O)O)NC(=O)[C@@H](NC(=O)[C@H](CC(C)C)NC(=O)[C@H](CO)NC(=O)[C@]1(C)CCCC=CCCC[C@](C)(NC(=O)[C@H](C)NC(=O)[C@@H](NC(=O)[C@H](CCC(=O)O)NC(=O)[C@H](CC(N)=O)NC(=O)[C@H](CC(C)C)NC(=O)[C@]2(C)CCCC=CCCC[C@](C)(NC(=O)[C@H](CCC(N)=O)NC(=O)[C@@H](NC(=O)[C@H](CC(N)=O)NC(=O)[C@@H](NC(=O)[C@@H](NC(=O)[C@H](CO)NC(=O)[C@H](C)NC(=O)[C@H](CC(N)=O)NC(=O)[C@@H](NC(=O)CNC(=O)[C@H](CO)NC(=O)[C@@H](NC(C)=O)[C@@H](C)CC)[C@@H](C)CC)C(C)C)C(C)C)[C@@H](C)CC)C(=O)N[C@@H](CCC(=O)O)C(=O)N[C@@H]([C@@H](C)CC)C(=O)N[C@@H](CC(=O)O)C(=O)N2)C(C)C)C(=O)N[C@@H](CC(N)=O)C(=O)N[C@@H](CC(C)C)C(=O)N[C@@H](CC(N)=O)C(=O)N1)[C@@H](C)CC)C(N)=O [SEQ ID NO:158]	33	–	–
CCCC[C@@H]1NC(=O)[C@H](CCC(=O)O)NC(=O)[C@H](Cc2ccc(O)cc2)NC(=O)[C@@](C)(NC(=O)[C@H](CC(C)C)NC(=O)[C@H](CC(=O)O)NC(=O)[C@H](CC(C)C)NC(=O)[C@H](Cc2ccccc2)NC(=O)[C@@H](NC(=O)[C@@H](NC(=O)[C@H](CC(N)=O)NC(=O)[C@@H](NC(=O)[C@H](CCC(N)=O)NC(=O)[C@H](CC(=O)O)NC(=O)[C@H](CC(C)C)NC(=O)[C@H](CO)NC(C)=O)[C@@H](C)CC)C(C)C)[C@@H](C)O)CCCC=CCCC[C@@](C)(C(=O)N[C@@H](CCCCN)C(=O)N[C@@H](CC(C)C)C(=O)N[C@@H](CCC(=O)O)C(=O)N[C@@H](CCC(=O)O)C(=O)N[C@@H](C)C(=O)N[C@H](C(=O)N[C@@]2(C)CCCC=CCCC[C@@](C)(C(=O)N[C@@H](CO)C(=O)N[C@@H](Cc3ccc(O)cc3)C(=O)N[C@H](C(=O)N[C@@H](CC(=O)O)C(=O)N[C@@H](CC(C)C)C(=O)N[C@@H](CCCCN)C(=O)N[C@@H](CCC(=O)O)C(N)=O)[C@@H](C)CC)NC(=O)[C@H](CCC(=O)O)NC(=O)[C@H](CC(C)C)NC(=O)[C@H](CCCCN)NC2=O)[C@@H](C)CC)NC1=O [SEQ ID NO:177, SLDQINVTFLDLX1YEBX2KLEEAIX3KLEX4SYIDLKE] (Ac-SLDQINVTFLDL[S5]YE[Nle][S5]KLEEAI[S5]KLE[S5]SYIDLKE-NH2; staple 13-17, 24-28)	840	–	–
SLDQINVTFLDLEYEMKKLEEAIKKLEESYIDLKEL [SEQ ID NO:110, reference compound]	–	–	little to no alpha-helical structure
